Assay: mn = molality of the nth substance listed, in mol/kg
Details: 101.3 kPa, Liquid, Dip Cell

CC(CN1c2ccccc2Sc2ccccc21)N(C)C.Cl (stereo not given) [promethazine hydrochloride] + O
electrical conductivity [S/m]
Details	293.15 K	303.15 K	313.15 K	323.15 K
m1 = 0.00484	0.029	0.039	0.05	0.063
m1 = 0.00938	0.065	0.075	0.092	0.105
m1 = 0.0136	0.099	0.109	0.131	0.144
m1 = 0.0176	0.13	0.14	0.167	0.18
m1 = 0.0214	0.159	0.169	0.199	0.212
m1 = 0.025	0.184	0.194	0.229	0.242
m1 = 0.0284	0.208	0.218	0.257	0.27
m1 = 0.0316	0.23	0.24	0.285	0.298
m1 = 0.0346	0.251	0.261	0.309	0.322
m1 = 0.0375	0.271	0.281	0.332	0.345
m1 = 0.0402	0.289	0.299	0.353	0.366
m1 = 0.0429	0.307	0.317	0.376	0.389
m1 = 0.0453	0.327	0.337	0.395	0.408
m1 = 0.0477	0.336	0.346	0.413	0.426
m1 = 0.05	0.347	0.357	0.428	0.447
m1 = 0.0522	0.358	0.368	0.44	0.457
m1 = 0.0543	0.369	0.379	0.45	0.467
m1 = 0.0563	0.38	0.39	0.46	0.477
m1 = 0.0582	0.391	0.401	0.47	0.487
m1 = 0.06	0.402	0.412	0.48	0.497
m1 = 0.0618	0.41	0.42	0.488	0.505
m1 = 0.0635	0.417	0.427	0.496	0.513
m1 = 0.0651	0.424	0.434	0.504	0.52
m1 = 0.0667	0.431	0.441	0.512	0.527
m1 = 0.0682	0.438	0.448	0.52	0.534
m1 = 0.0696	0.445	0.455	0.528	0.54
m1 = 0.0711	0.452	0.462	0.536	0.546
m1 = 0.0724	0.459	0.469	0.542	0.552
m1 = 0.0737	0.466	0.476	0.548	0.557
m1 = 0.075	0.473	0.483	0.554	0.562
